# Assay results taken from patent US4348410A, “Cyclohexane carboxylic acid derivatives” (Nippon Chemiphar Co., Ltd., priority 1979, dated 1982).
# Where two headings read alike, the source gives them in different places.
# What was measured:
# Acute toxicity = conditions: mouse, in vivo, po, 7 days observation
# Procedure: […]. The test drugs were given orally using gastric sonde. […] The LD50 value was calculated by the Probit method (C.I. Bliss).
# Shay ulcers = Shay ulcers (pylorus ligation); format: in vivo, Male Sprague-Dawley strain rats; conditions: for Ulcer Grade 0 (number of rats): 0=no lesion; for Ulcer Grade 1 (number of rats): 1=hemorrhagic suffusion; for Ulcer Grade 2 (number of rats): 2=1-5 small ulcers (<3 mm); for Ulcer Grade 3 (number of rats): 3=many small ulcers (more than 5) or 1 ulcer of marked size; for Ulcer Grade 4 (number of rats): 4=many ulcers of marked size; for Ulcer Grade 5 (number of rats): 5=perforated ulcer
# Procedure: The rats were sacrificed 18 hours later by an overdose of ether and the stomach removed. The stomach was incised along the greater curvature and the surface area of each lesion in forestomach was measured by the naked eye. […] 4=many ulcers of marked size 5=perforated ulcer The test drugs were given intraperitoneally, immediately after pylorus ligation.
# gastric secretion = assay: Influence to the gastric secretion (pylorus ligation); format: in vivo, Male Sprague-Dawley strain rats
# Procedure: Male Sprague-Dawley strain rats, weighing 160-180 g were deprived of food but allowed free access to water for 20 hours prior to experiment. […] The test drug was given intraperitoneally immediately after pylorus ligation. The rats were sacrificed 3, 6 and 12 hours later and the stomachs removed. The gastric juice was collected and analyzed for volume. Then the gastric juice was centrifuged at 1300 g for 10 minutes at room temperature to give the supernatant. The total acidity and peptic activity of the supernatant were determined. Total acidity was determined by titrating with 0.01 N NaOH. […] Total acidity is shown as the titration volume (ml) and peptic activity is shown as the corresponding weight (mg) to crystal pepsin.
# [1] = system: cysteamine-induced duodenal ulcers; assay: Duodenal ulcers (cysteamine-induced); format: in vivo, Female Sprague-Dawley strain rats
# Procedure: Female Sprague-Dawley strain rats, weighing about 200 g were deprived of food for 24 hours prior to experiment. Cysteamine 400 mg/kg was given subcutaneously once to the rats. The animals were provided food and libitum from the 7 hours later. The test drug was given orally as aqueous suspension after 7 hours, the administration of cysteamine, then daily×4. On the next morning of the last administration, the animals were sacrificed under ether anesthesia. The ulcer area (mm^2) was measured and described as ulcer index.
# chymotrypsin = chymotrypsin (Bos taurus, UniProt P00766); assay: Inhibitory effects on chymotrypsin (hydrolysis of N-acetyl-L-tyrosine ethyl ester); format: biochemical; conditions: 37° C., 10 minutes; concentration not given
# Procedure: The compounds of the formula (I) have excellent inhibitory effects on protease. The inhibitory effects were determined by the following methods: Inhibitory effects on the compounds of chymotrypsin were determined according to the method described by M. […] In particular, inhibitory effects of the compounds on hydrolysis of N-acetyl-L-tyrosine ethyl ester by chymotrypsin were examined (incubated at 37° C. for 10 minutes).
# acetic acid ulcers = assay: Acetic acid ulcers; format: in vivo, Male Sprague-Dawley strain rats; conditions: for Ulcer Grade 1 (number of rats): ulcer area 0-10 mm^2; for Ulcer Grade 2 (number of rats): ulcer area 11-20 mm^2; for Ulcer Grade 3 (number of rats): ulcer area 21-30 mm^2; for Ulcer Grade 4 (number of rats): ulcer area 31-40 mm^2; for Ulcer Grade 5 (number of rats): ulcer area >40 mm^2
# Procedure: Male Sprague-Dawley strain rats, weighing about 200 g were used. Under ether anesthesia 10% acetic acid solution (0.05 ml) was injected carefully between the serous membrane and the muscle near the pylorus, and the abdomen was closed. Thereafter, the animals were maintained under conditions and administered 1 ml/100 g of each test drug dissolved or suspended in 0.5% carboxymethylcellulose solution p.o. daily×10 starting from the next day of the operation. On the 11th day, the rats were sacrificed under ether anesthesia, and the stomachs were removed. The area of the ulcer was measured and graded into 5 degrees as an ulcer index according to the following method: […]
smiles,measurement,setting,value
N=C(N)NC[C@H]1CC[C@H](C(=O)Oc2ccccc2C(=O)OCc2ccccc2)CC1 [Compound 1],LD50 at 168 h,"Acute toxicity; female mice, read-out: LD50 Female",> 8000 mg/kg
same,LD50 at 168 h,"Acute toxicity; male mice, read-out: LD50 male",7600 mg/kg
same,Ulcer Grade 0 (number of rats),Shay ulcers; 75 mg/kg i.p.,8
same,Ulcer Grade 1 (number of rats),Shay ulcers; 75 mg/kg i.p.,0
same,Ulcer Grade 2 (number of rats),Shay ulcers; 75 mg/kg i.p.,2
same,Ulcer Grade 3 (number of rats),Shay ulcers; 75 mg/kg i.p.,0
same,Ulcer Grade 4 (number of rats),Shay ulcers; 75 mg/kg i.p.,0
same,Ulcer Grade 5 (number of rats),Shay ulcers; 75 mg/kg i.p.,0
same,Ulcer Grade 0 (number of rats),Shay ulcers; 150 mg/kg i.p.,10
same,Ulcer Grade 1 (number of rats),Shay ulcers; 150 mg/kg i.p.,0
same,Ulcer Grade 2 (number of rats),Shay ulcers; 150 mg/kg i.p.,0
same,Ulcer Grade 3 (number of rats),Shay ulcers; 150 mg/kg i.p.,0
same,Ulcer Grade 4 (number of rats),Shay ulcers; 150 mg/kg i.p.,0
same,Ulcer Grade 5 (number of rats),Shay ulcers; 150 mg/kg i.p.,0
same,Ulcer Grade 0 (number of rats),Shay ulcers; 300 mg/kg i.p.,7
same,Ulcer Grade 1 (number of rats),Shay ulcers; 300 mg/kg i.p.,0
same,Ulcer Grade 2 (number of rats),Shay ulcers; 300 mg/kg i.p.,0
same,Ulcer Grade 3 (number of rats),Shay ulcers; 300 mg/kg i.p.,0
same,Ulcer Grade 4 (number of rats),Shay ulcers; 300 mg/kg i.p.,0
same,Ulcer Grade 5 (number of rats),Shay ulcers; 300 mg/kg i.p.,0
same,Gastric Contents Volume,"gastric secretion; 3 hours, 75 mg/kg i.p.",2.6 ± 0.4 mL
same,Gastric Contents Volume % change,"gastric secretion; 3 hours, 75 mg/kg i.p.",10.3%
same,Titratable Acid Output,"gastric secretion; 3 hours, 75 mg/kg i.p.",39.2 ± 11.6 μEg
same,Titratable Acid Output % change,"gastric secretion; 3 hours, 75 mg/kg i.p.",52.5%
same,Titratable Pepsin Output,"gastric secretion; 3 hours, 75 mg/kg i.p.",5.7 ± 1.5 mg
same,Titratable Pepsin Output % change,"gastric secretion; 3 hours, 75 mg/kg i.p.",1.7%
same,Gastric Contents Volume,"gastric secretion; 3 hours, 150 mg/kg i.p.",0.7 ± 0.3 mL
same,Gastric Contents Volume % change,"gastric secretion; 3 hours, 150 mg/kg i.p.",75.9%
same,Titratable Acid Output,"gastric secretion; 3 hours, 150 mg/kg i.p.",9.8 ± 3.3 μEg
same,Titratable Acid Output % change,"gastric secretion; 3 hours, 150 mg/kg i.p.",88.1%
same,Titratable Pepsin Output,"gastric secretion; 3 hours, 150 mg/kg i.p.",1.4 ± 0.7 mg
same,Titratable Pepsin Output % change,"gastric secretion; 3 hours, 150 mg/kg i.p.",75.9%
same,Gastric Contents Volume,"gastric secretion; 3 hours, 300 mg/kg i.p.",0.5 ± 0.2 mL
same,Gastric Contents Volume % change,"gastric secretion; 3 hours, 300 mg/kg i.p.",82.8%
same,Titratable Acid Output,"gastric secretion; 3 hours, 300 mg/kg i.p.",4.6 ± 3.3 μEg
same,Titratable Acid Output % change,"gastric secretion; 3 hours, 300 mg/kg i.p.",94.4%
same,Titratable Pepsin Output,"gastric secretion; 3 hours, 300 mg/kg i.p.",0.9 ± 0.6 mg
same,Titratable Pepsin Output % change,"gastric secretion; 3 hours, 300 mg/kg i.p.",84.5%
same,Gastric Contents Volume,"gastric secretion; 6 hours, 75 mg/kg i.p.",4.2 ± 0.6 mL
same,Gastric Contents Volume % change,"gastric secretion; 6 hours, 75 mg/kg i.p.",31.1%
same,Titratable Acid Output,"gastric secretion; 6 hours, 75 mg/kg i.p.",259.8 ± 61.8 μEq
same,Titratable Acid Output % change,"gastric secretion; 6 hours, 75 mg/kg i.p.",32.0%
same,Titratable Pepsin Output,"gastric secretion; 6 hours, 75 mg/kg i.p.",13.9 ± 3.0 mg
same,Titratable Pepsin Output % change,"gastric secretion; 6 hours, 75 mg/kg i.p.",35.9%
same,Gastric Contents Volume,"gastric secretion; 6 hours, 150 mg/kg i.p.",1.5 ± 0.3 mL
same,Gastric Contents Volume % change,"gastric secretion; 6 hours, 150 mg/kg i.p.",75.4%
same,Titratable Acid Output,"gastric secretion; 6 hours, 150 mg/kg i.p.",85.3 ± 49.4 μEq
same,Titratable Acid Output % change,"gastric secretion; 6 hours, 150 mg/kg i.p.",77.7%
same,Titratable Pepsin Output,"gastric secretion; 6 hours, 150 mg/kg i.p.",4.7 ± 1.1 mg
same,Titratable Pepsin Output % change,"gastric secretion; 6 hours, 150 mg/kg i.p.",78.3%
same,Gastric Contents Volume,"gastric secretion; 6 hours, 300 mg/kg i.p.",1.5 ± 0.3 mL
same,Gastric Contents Volume % change,"gastric secretion; 6 hours, 300 mg/kg i.p.",75.4%
same,Titratable Acid Output,"gastric secretion; 6 hours, 300 mg/kg i.p.",70.4 ± 30.4 μEq
same,Titratable Acid Output % change,"gastric secretion; 6 hours, 300 mg/kg i.p.",81.6%
same,Titratable Pepsin Output,"gastric secretion; 6 hours, 300 mg/kg i.p.",3.5 ± 1.4 mg
same,Titratable Pepsin Output % change,"gastric secretion; 6 hours, 300 mg/kg i.p.",83.9%
same,Gastric Contents Volume,"gastric secretion; 12 hours, 75 mg/kg i.p.",5.2 ± 2.1 mL
same,Gastric Contents Volume % change,"gastric secretion; 12 hours, 75 mg/kg i.p.",61.5%
same,Titratable Acid Output,"gastric secretion; 12 hours, 75 mg/kg i.p.",394.6 ± 136.5 μEq
same,Titratable Acid Output % change,"gastric secretion; 12 hours, 75 mg/kg i.p.",51.9%
same,Titratable Pepsin Output,"gastric secretion; 12 hours, 75 mg/kg i.p.",27.3 ± 8.6 mg
same,Titratable Pepsin Output % change,"gastric secretion; 12 hours, 75 mg/kg i.p.",52.9%
same,Gastric Contents Volume,"gastric secretion; 12 hours, 150 mg/kg i.p.",6.3 ± 0.9 mL
same,Gastric Contents Volume % change,"gastric secretion; 12 hours, 150 mg/kg i.p.",53.3%
same,Titratable Acid Output,"gastric secretion; 12 hours, 150 mg/kg i.p.",387.3 ± 79.3 μEq
same,Titratable Acid Output % change,"gastric secretion; 12 hours, 150 mg/kg i.p.",52.8%
same,Titratable Pepsin Output,"gastric secretion; 12 hours, 150 mg/kg i.p.",24.0 ± 4.2 mg
same,Titratable Pepsin Output % change,"gastric secretion; 12 hours, 150 mg/kg i.p.",58.6%
same,Gastric Contents Volume,"gastric secretion; 12 hours, 300 mg/kg i.p.",3.6 ± 0.6 mL
same,Gastric Contents Volume % change,"gastric secretion; 12 hours, 300 mg/kg i.p.",73.3%
same,Titratable Acid Output,"gastric secretion; 12 hours, 300 mg/kg i.p.",258.4 ± 66.9 μEq
same,Titratable Acid Output % change,"gastric secretion; 12 hours, 300 mg/kg i.p.",68.5%
same,Titratable Pepsin Output,"gastric secretion; 12 hours, 300 mg/kg i.p.",14.0 ± 2.4 mg
same,Titratable Pepsin Output % change,"gastric secretion; 12 hours, 300 mg/kg i.p.",75.9%
same,Inhibition (%),[1]; 250 mg/kg orally,72.1%
same,Ulcer Index (mm^2),[1]; 250 mg/kg orally,22.5 ± 3.9 mm^2
same,Inhibition (%),[1]; 500 mg/kg orally,85.5%
same,Ulcer Index (mm^2),[1]; 500 mg/kg orally,11.7 ± 3.6 mm^2
same,Inhibition (%) Chymotrypsin,chymotrypsin,100%
same,Ulcer Grade 1 (number of rats),acetic acid ulcers; 125 mg/kg p.o. daily×10,15
same,Ulcer Grade 2 (number of rats),acetic acid ulcers; 125 mg/kg p.o. daily×10,1
same,Ulcer Grade 3 (number of rats),acetic acid ulcers; 125 mg/kg p.o. daily×10,2
same,Ulcer Grade 4 (number of rats),acetic acid ulcers; 125 mg/kg p.o. daily×10,0
same,Ulcer Grade 5 (number of rats),acetic acid ulcers; 125 mg/kg p.o. daily×10,0
same,Ulcer Grade 1 (number of rats),acetic acid ulcers; 250 mg/kg p.o. daily×10,14
same,Ulcer Grade 2 (number of rats),acetic acid ulcers; 250 mg/kg p.o. daily×10,1
same,Ulcer Grade 3 (number of rats),acetic acid ulcers; 250 mg/kg p.o. daily×10,1
same,Ulcer Grade 4 (number of rats),acetic acid ulcers; 250 mg/kg p.o. daily×10,0
same,Ulcer Grade 5 (number of rats),acetic acid ulcers; 250 mg/kg p.o. daily×10,0
same,Ulcer Grade 1 (number of rats),acetic acid ulcers; 500 mg/kg p.o. daily×10,16
same,Ulcer Grade 2 (number of rats),acetic acid ulcers; 500 mg/kg p.o. daily×10,2
same,Ulcer Grade 3 (number of rats),acetic acid ulcers; 500 mg/kg p.o. daily×10,0
same,Ulcer Grade 4 (number of rats),acetic acid ulcers; 500 mg/kg p.o. daily×10,0
same,Ulcer Grade 5 (number of rats),acetic acid ulcers; 500 mg/kg p.o. daily×10,0
